# Laboratory results as given in the supplement of paper PMC10307832.
# Experiments:
# Test in all cases: relative viability (nuclei count vs DMSO), 5 days (fraction); higher = more cells survive
# JZL-184 + Trametinib = compound: C1CN(CCC1C(C2=CC3=C(C=C2)OCO3)(C4=CC5=C(C=C4)OCO5)O)C(=O)OC6=CC=C(C=C6)[N+](=O)[O-] [JZL-184] + CC(=O)Nc1cccc(-n2c(=O)n(C3CC3)c(=O)c3c(Nc4ccc(I)cc4F)n(C)c(=O)c(C)c32)c1 [Trametinib] (partner 0.02 µM)
# Procedure, shortened: (§1)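 Five library-drug doses in √10 steps were combined with a fixed anchor-drug dose, or a single drug was given alone, by pin tool to lung cancer cell lines in 1536-well plates the day after seeding. Nuclei were stained and counted after 5 days. Relative viability is the nuclei count in treated wells over that in vehicle wells, taken as the median of duplicate plates.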
# JZL-184 + Luminespib = compound: C1CN(CCC1C(C2=CC3=C(C=C2)OCO3)(C4=CC5=C(C=C4)OCO5)O)C(=O)OC6=CC=C(C=C6)[N+](=O)[O-] [JZL-184] + CCNC(=O)c1noc(-c2cc(C(C)C)c(O)cc2O)c1-c1ccc(CN2CCOCC2)cc1 [Luminespib] (partner 0.01 µM)
# Procedure, shortened: as §1
# JZL-184 + OSI-027 = compound: C1CN(CCC1C(C2=CC3=C(C=C2)OCO3)(C4=CC5=C(C=C4)OCO5)O)C(=O)OC6=CC=C(C=C6)[N+](=O)[O-] [JZL-184] + COc1cccc2cc(-c3nc([C@H]4CC[C@H](C(=O)O)CC4)n4ncnc(N)c34)[nH]c12 [OSI-027] (partner 0.5 µM)
# Procedure, shortened: as §1
# JZL-184 + AZD7762 = compound: C1CN(CCC1C(C2=CC3=C(C=C2)OCO3)(C4=CC5=C(C=C4)OCO5)O)C(=O)OC6=CC=C(C=C6)[N+](=O)[O-] [JZL-184] + NC(=O)Nc1cc(-c2cccc(F)c2)sc1C(=O)N[C@H]1CCCNC1 [AZD7762] (partner 0.2 µM)
# Procedure, shortened: as §1
# JZL-184 + Vorinostat = compound: C1CN(CCC1C(C2=CC3=C(C=C2)OCO3)(C4=CC5=C(C=C4)OCO5)O)C(=O)OC6=CC=C(C=C6)[N+](=O)[O-] [JZL-184] + O=C(CCCCCCC(=O)Nc1ccccc1)NO [Vorinostat] (partner 1 µM)
# Procedure, shortened: as §1
Cell Line,relative viability (JZL-184 + Trametinib; first compound 0.4 µM),relative viability (JZL-184 + Trametinib; first compound 1.265 µM),relative viability (JZL-184 + Trametinib; first compound 4 µM),relative viability (JZL-184 + Luminespib; first compound 0.04 µM),relative viability (JZL-184 + Luminespib; first compound 0.4 µM),relative viability (JZL-184 + Luminespib; first compound 1.265 µM),relative viability (JZL-184 + Luminespib; first compound 4 µM),relative viability (JZL-184 + OSI-027; first compound 0.04 µM),relative viability (JZL-184 + OSI-027; first compound 0.4 µM),relative viability (JZL-184 + OSI-027; first compound 1.265 µM),relative viability (JZL-184 + OSI-027; first compound 4 µM),relative viability (JZL-184 + AZD7762; first compound 0.4 µM),relative viability (JZL-184 + AZD7762; first compound 1.265 µM),relative viability (JZL-184 + AZD7762; first compound 4 µM),relative viability (JZL-184 + Vorinostat; first compound 0.4 µM),relative viability (JZL-184 + Vorinostat; first compound 1.265 µM),relative viability (JZL-184 + Vorinostat; first compound 4 µM),relative viability (JZL-184 + Trametinib; first compound 0.04 µM),relative viability (JZL-184 + AZD7762; first compound 0.04 µM),relative viability (JZL-184 + Vorinostat; first compound 0.04 µM)
NCI-H2085,0.515,0.527,0.603,0.327,0.454,0.46,0.443,0.444,0.592,0.795,0.649,0.886,1.02,1.01,0.805,0.832,0.709,,,
NCI-H2087,0.173,0.182,0.188,0.167,0.134,0.157,0.209,0.519,0.514,0.579,0.436,1.2,1.26,1.34,0.742,0.807,1,0.181,1.33,0.969
NCI-H2126,0.603,0.602,0.503,1.06,0.876,0.922,0.92,0.636,0.64,0.804,0.683,1.01,1.02,0.996,0.698,0.76,0.737,0.506,1.06,0.753
NCI-H2170,0.855,0.864,0.825,0.712,0.651,0.762,0.491,0.721,0.758,0.759,0.682,0.794,0.928,0.761,0.754,0.811,0.737,1.01,0.899,0.922
NCI-H2342,0.785,0.972,0.756,0.687,0.61,0.683,0.783,0.614,0.548,0.617,0.704,0.39,0.563,0.6,0.676,0.719,0.813,0.837,0.556,0.809
NCI-H2347,0.313,0.275,0.283,0.321,0.553,0.497,0.587,0.396,0.393,0.419,0.477,0.758,0.82,0.703,0.494,0.661,0.616,,,
NCI-H2405,0.664,0.69,0.45,0.598,0.764,0.796,0.734,0.608,0.608,0.651,0.615,0.533,0.797,0.663,0.83,1.3,0.968,0.703,0.786,1.15
NCI-H3122,0.168,0.242,0.242,0.0989,0.0869,0.0901,0.11,1.14,0.902,0.944,0.862,0.866,0.99,1.02,0.988,0.965,1.06,0.211,1.05,1.05
PC-3 [JPC-3],0.71,0.708,0.687,0.793,0.721,0.811,0.615,0.732,0.724,0.782,0.749,0.71,0.94,0.8,0.761,1.14,0.736,0.779,0.773,0.873
PC-14,0.693,0.738,0.635,0.119,0.137,0.146,0.287,1.07,0.831,0.853,0.72,0.337,0.387,0.321,0.722,0.758,0.661,1.1,0.391,0.848
RERF-LC-KJ,0.868,0.876,0.781,1.34,1.37,1.31,1.2,0.58,0.625,0.562,0.478,0.963,0.895,1,0.642,0.699,0.614,0.952,1.11,0.707
SW 900,0.783,0.864,0.693,0.16,0.18,0.18,0.196,0.596,0.536,0.566,0.5,0.756,0.627,0.594,0.4,0.587,0.527,0.74,0.573,0.496
